Calls of active or inactive are those of the source.

The target in test [1] is Cytochrome P450 2D6 (Homo sapiens, UniProt P10635). In words: qHTS Assay for Inhibitors and Substrates of Cytochrome P450 2D6. [Related pubchem assays: 410 ]. The test is classed as ADME. The conditions noted are these: read-out: Potency. (In general: Quantitative high-throughput screening tests each substance at several concentrations.)
Test [2] deals with Heat shock protein HSP 90-alpha (Homo sapiens, UniProt P07900). In words: Luminescence-based dose response biochemical high throughput screening assay for inhibitors of the Heat Shock Protein 90 (HSP90). [Related pubchem assays: 1831 (Summary AID.), 1846 (Confirmation screen.), 1789 (Primary screen.)].
The nature of test [3]: CCR5-tropic HIV-1 fusion blockers – cell-based, CCR5-tropic Env, dose response (AID 2279). The test is classed as functional.
The target of test [4] is Bcl-2-like protein 10 (Homo sapiens, UniProt Q9HD36). In words: Concentration-response of Bcl-B inhibitors by biochemical FP with TR3 (AID 1243). The test is classed as functional.
Test [5] concerns HT-1080. In words: HT1080 cell viability loss – fluorescence readout (AID 620). As to conditions: Homo sapiens. The test is classed as functional, cell-based.
The target in test [6] is Luciferin 4-monooxygenase (Photinus pyralis, UniProt P08659). In words: Counter Screen for Luciferase-based Assay Positives. [Related pubchem assays: 620, 618, 411 ]. For orientation: The purpose of a counterscreen is to sort out artefacts and off-target activity.
Test [7] has as its target T1, Protein RecA (Mycobacterium tuberculosis, UniProt P9WHJ3).
T1 sequence (P9WHJ3 whole entry): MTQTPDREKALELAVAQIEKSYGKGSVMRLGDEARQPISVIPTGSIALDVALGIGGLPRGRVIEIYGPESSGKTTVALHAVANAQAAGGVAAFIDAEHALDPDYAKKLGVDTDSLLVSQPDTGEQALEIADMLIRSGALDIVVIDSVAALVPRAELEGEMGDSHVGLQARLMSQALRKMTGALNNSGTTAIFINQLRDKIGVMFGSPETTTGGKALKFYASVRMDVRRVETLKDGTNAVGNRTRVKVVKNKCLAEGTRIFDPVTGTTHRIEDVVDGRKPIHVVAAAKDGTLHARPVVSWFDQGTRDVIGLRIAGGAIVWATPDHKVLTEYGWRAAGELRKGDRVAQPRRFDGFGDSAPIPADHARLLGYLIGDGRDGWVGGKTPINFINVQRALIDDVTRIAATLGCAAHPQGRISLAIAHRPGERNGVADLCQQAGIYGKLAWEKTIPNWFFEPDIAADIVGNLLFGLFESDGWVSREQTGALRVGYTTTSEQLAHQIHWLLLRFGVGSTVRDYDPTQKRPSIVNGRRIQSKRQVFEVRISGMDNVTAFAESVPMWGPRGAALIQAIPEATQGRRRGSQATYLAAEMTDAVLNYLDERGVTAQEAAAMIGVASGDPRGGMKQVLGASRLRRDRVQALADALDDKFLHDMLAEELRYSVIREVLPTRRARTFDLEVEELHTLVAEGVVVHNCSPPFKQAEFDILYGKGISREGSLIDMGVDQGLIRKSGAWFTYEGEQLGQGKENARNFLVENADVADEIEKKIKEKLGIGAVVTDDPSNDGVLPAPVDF
Nature of the test: Fluorescence Cell-Free Homogeneous Dose Retest to Identify Inhibitors of RecA-Intein Splicing Activity. [Related pubchem assays (depositor defined):AID2097, AID2223, AID489010, AID492950]. The test is classed as functional.

The target in test [8] is T2, Replicative DNA helicase DnaB (Mycobacterium tuberculosis, UniProt P9WMR3).
T2 sequence (P9WMR3 whole entry): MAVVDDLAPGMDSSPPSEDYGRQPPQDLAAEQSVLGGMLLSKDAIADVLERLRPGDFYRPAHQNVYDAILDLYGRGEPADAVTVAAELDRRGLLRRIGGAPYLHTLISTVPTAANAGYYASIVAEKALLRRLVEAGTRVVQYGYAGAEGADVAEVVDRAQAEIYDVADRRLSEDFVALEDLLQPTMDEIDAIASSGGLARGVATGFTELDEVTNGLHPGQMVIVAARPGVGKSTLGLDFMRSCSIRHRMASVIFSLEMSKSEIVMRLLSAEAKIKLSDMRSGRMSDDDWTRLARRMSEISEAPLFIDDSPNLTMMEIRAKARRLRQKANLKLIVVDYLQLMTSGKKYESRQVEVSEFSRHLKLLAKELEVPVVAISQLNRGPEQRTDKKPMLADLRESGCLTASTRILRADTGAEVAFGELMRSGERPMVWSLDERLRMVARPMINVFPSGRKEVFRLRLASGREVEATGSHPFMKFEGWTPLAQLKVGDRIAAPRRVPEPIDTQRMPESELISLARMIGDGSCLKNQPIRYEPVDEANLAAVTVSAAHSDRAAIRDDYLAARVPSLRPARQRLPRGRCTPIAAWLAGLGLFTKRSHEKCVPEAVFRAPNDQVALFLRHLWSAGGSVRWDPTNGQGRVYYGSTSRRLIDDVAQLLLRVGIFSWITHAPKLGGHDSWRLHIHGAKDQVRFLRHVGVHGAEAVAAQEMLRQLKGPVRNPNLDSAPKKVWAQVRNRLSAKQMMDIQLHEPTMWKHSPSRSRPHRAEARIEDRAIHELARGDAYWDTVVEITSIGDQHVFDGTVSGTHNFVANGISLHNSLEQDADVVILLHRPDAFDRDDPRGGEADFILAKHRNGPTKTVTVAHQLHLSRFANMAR
Nature of the test: DnaB intein splicing inhibitors, dose response, biochemical, cell-free fluorescence (AID 449749). The test is classed as functional.

Test [9] is described as follows: reduced cellular PGC1a acetyl-lysine signal – cell-based, cherry-picked samples, dose response (AID 720514).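 Further: potency may reflect raised or lowered acetylation signal.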 The test is classed as functional.
Test [10] is described as follows: Luminescence Cell-Based Dose Retest to Confirm Inhibitors of Cancer Stem Cells. [Related pubchem assays (depositor defined):AID2717, AID2721]. The conditions noted are these: Homo sapiens. The test is classed as functional.
A short description of test [11]: Counterscreen for IDE inhibitors: Luminescence-based cell-based high throughput dose response assay to identify compounds that are cytotoxic to HEK cells. [Related pubchem assays: 434962 (Primary screen (IDE inhibitors in singlicate)), 449730 (Counterscreen (Cytotoxicity in triplicate)), 435028 (Confirmation (IDE inhibitors in triplicate)) …. It counts as functional. As to conditions: HEK293.

In test [12] the target is T3, Insulin-degrading enzyme (Homo sapiens, UniProt P14735).
T3 sequence (P14735 whole entry): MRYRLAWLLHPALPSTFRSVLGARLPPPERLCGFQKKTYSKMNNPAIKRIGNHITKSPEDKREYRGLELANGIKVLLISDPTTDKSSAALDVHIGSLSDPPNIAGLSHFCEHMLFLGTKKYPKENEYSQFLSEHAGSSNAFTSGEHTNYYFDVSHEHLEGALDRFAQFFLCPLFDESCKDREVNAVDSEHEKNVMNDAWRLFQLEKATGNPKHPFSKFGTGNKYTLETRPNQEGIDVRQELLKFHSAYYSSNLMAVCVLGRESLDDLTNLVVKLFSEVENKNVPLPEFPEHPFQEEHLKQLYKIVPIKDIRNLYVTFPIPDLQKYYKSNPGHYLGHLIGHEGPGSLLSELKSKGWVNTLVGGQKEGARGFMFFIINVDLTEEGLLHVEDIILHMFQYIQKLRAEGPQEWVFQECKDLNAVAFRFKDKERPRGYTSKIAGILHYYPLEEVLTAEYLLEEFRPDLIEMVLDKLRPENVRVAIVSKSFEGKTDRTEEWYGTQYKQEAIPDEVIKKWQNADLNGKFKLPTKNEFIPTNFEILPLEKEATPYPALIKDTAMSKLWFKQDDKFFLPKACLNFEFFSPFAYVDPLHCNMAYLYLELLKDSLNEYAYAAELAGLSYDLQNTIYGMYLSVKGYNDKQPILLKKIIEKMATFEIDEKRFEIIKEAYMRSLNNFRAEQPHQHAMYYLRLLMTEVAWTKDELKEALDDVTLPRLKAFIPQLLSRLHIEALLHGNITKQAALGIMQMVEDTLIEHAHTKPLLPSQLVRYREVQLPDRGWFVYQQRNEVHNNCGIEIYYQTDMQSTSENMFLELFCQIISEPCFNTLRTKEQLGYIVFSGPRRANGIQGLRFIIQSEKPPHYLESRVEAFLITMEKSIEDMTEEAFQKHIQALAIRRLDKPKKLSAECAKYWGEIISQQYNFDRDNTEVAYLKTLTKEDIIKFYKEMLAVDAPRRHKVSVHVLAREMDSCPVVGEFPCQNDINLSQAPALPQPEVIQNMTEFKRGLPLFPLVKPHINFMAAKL
Nature of the test: Dose Response: Fluorescence polarization-based cell-based high throughput dose response assay for inhibitors of insulin-degrading enzyme (IDE). [Related pubchem assays: 434962 (Primary screen (IDE inhibitors in singlicate)), 449730 (Counterscreen (Cytotoxicity in triplicate)), 435028 (Confirmation (IDE inhibitors in triplicate)), 434984 (Summary …. The test is classed as functional. In general terms: Polarisation of emitted light reports the rotation of a fluorescent probe.

Test [13] deals with T4, Heat shock 70 kDa protein 1A (Homo sapiens, UniProt P0DMV8). Nature of the test: small-molecule inhibition of Hsp70 – biochemical, TR-FRET (AID 786).
The target in test [14] is T4, Heat shock 70 kDa protein 1A. In words: small molecules displacing fluorescent ligand from Hsp70 – biochemical, fluorescence polarization, primary screen (AID 583).
Test [15] addresses Estrogen receptor beta (Homo sapiens, UniProt Q92731).
Test [16] concerns the target T5, Estrogen receptor (Homo sapiens, UniProt P03372).
T5 sequence (P03372 whole entry): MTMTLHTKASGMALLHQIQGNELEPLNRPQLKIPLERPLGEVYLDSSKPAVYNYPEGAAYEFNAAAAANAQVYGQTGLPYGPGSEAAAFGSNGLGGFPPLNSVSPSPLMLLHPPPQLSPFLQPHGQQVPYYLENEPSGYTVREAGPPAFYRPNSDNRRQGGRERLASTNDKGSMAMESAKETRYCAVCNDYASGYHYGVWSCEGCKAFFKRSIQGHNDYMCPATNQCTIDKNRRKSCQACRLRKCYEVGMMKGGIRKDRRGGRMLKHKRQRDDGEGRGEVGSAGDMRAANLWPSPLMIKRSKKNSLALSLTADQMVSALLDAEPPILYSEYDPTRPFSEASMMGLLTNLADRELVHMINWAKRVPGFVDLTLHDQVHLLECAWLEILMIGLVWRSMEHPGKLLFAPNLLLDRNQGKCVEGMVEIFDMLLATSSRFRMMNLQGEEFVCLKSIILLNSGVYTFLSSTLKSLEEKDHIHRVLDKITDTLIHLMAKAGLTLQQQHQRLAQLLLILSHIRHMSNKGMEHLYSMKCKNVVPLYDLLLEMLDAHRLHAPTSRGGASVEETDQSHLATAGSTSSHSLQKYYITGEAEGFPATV

For test [17], the target named is Mothers against decapentaplegic homolog 3 (Homo sapiens, UniProt P84022). In words: blockers of Smad3 complex formation in lysate – cell lysate, secondary confirmation, chemiluminescent ELISA, HEK293 lysate, dose response (AID 1058). The test is classed as functional.
Test [18] addresses Wee1-like protein kinase (Homo sapiens, UniProt P30291). In words: Dose Response Cell-based Assay for Inhibitors of Wee1 Degradation. [Related pubchem assays: 1410, 1321 ]. It counts as functional.
The target of test [19] is G2/mitotic-specific cyclin-B1 (Homo sapiens, UniProt P14635). In words: Counterscreen assay for inhibitors of Wee1 degradation: dose response cell-based assay to identify inhibitors of cyclin B degradation. [Related pubchem assays: 1410, 1321 ]. The test is classed as functional.
Test [20] has as its target T6, Alkaline phosphatase, tissue-nonspecific isozyme (Homo sapiens, UniProt P05186).
T6 sequence (P05186 whole entry): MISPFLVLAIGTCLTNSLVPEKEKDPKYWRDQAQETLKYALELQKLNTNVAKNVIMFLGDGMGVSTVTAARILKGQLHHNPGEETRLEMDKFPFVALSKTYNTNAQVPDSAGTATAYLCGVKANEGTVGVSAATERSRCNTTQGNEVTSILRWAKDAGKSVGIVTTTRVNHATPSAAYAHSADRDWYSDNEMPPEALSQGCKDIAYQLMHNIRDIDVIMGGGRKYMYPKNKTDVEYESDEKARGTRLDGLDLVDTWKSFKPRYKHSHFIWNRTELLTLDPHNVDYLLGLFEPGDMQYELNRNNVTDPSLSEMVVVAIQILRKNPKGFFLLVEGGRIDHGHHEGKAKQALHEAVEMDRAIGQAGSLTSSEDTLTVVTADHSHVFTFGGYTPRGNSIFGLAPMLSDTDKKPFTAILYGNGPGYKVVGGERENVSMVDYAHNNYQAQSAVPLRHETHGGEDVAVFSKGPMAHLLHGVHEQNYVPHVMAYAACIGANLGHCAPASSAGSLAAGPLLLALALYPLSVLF

T4 sequence (P0DMV8 whole entry): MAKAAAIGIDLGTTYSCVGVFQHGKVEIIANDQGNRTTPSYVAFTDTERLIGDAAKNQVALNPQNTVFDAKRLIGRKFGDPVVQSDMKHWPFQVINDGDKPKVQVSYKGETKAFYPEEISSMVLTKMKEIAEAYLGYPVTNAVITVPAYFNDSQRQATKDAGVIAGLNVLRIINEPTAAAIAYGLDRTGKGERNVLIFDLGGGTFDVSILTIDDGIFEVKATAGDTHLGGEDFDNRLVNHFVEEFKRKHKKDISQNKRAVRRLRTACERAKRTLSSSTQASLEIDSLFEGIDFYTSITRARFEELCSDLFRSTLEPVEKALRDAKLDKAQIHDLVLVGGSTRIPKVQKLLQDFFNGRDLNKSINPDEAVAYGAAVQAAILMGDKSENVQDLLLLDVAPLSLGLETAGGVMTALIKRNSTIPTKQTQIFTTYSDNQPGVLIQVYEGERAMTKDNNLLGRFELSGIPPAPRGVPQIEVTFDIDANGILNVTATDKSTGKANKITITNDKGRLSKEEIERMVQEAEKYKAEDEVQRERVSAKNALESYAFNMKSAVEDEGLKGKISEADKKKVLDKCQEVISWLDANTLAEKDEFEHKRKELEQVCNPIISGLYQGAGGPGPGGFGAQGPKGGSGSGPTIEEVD
Chain of Wee1-like protein kinase (P30291 whole entry): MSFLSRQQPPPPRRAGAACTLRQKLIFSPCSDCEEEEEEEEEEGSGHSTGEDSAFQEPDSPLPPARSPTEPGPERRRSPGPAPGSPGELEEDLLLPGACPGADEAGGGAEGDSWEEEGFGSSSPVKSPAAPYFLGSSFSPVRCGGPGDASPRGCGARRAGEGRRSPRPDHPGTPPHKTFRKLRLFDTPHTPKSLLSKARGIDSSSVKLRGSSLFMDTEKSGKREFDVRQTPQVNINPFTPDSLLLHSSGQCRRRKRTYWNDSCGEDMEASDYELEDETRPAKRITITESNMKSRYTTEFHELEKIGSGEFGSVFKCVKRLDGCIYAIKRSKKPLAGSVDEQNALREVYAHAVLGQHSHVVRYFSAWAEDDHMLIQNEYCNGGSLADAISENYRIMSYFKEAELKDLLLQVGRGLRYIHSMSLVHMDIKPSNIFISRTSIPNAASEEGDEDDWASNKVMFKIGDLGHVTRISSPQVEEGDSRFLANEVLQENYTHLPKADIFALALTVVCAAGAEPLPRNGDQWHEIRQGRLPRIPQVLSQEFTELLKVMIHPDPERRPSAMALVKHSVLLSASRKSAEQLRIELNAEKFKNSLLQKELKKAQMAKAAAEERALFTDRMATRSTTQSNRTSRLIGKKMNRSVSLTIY
Chain of G2/mitotic-specific cyclin-B1 (P14635 whole entry): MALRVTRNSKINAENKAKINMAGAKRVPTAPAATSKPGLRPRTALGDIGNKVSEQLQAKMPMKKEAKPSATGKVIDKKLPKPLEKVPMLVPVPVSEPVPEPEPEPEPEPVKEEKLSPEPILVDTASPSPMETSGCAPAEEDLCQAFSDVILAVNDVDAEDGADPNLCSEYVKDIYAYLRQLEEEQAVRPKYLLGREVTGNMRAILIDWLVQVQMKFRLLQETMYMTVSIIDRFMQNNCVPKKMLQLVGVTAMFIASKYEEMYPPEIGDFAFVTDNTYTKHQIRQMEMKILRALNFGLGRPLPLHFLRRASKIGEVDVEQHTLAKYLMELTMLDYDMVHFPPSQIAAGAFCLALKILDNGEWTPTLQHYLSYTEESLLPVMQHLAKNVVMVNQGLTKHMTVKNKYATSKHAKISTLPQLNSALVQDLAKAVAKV
Chain of Cytochrome P450 2D6 (P10635 whole entry): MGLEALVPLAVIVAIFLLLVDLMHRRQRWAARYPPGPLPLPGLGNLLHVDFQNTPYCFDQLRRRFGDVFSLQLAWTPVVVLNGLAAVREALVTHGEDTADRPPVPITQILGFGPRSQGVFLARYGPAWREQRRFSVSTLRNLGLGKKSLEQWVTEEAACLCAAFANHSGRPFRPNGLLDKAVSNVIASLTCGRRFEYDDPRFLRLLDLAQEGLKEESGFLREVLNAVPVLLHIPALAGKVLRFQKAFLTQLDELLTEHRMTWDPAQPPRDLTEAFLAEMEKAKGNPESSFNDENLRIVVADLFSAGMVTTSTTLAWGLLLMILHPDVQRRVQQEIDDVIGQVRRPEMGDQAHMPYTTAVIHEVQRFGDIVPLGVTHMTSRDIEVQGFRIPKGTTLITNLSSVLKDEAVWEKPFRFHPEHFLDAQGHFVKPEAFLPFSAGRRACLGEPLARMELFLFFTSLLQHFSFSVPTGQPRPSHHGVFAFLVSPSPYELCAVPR
Chain of Estrogen receptor beta (Q92731 whole entry): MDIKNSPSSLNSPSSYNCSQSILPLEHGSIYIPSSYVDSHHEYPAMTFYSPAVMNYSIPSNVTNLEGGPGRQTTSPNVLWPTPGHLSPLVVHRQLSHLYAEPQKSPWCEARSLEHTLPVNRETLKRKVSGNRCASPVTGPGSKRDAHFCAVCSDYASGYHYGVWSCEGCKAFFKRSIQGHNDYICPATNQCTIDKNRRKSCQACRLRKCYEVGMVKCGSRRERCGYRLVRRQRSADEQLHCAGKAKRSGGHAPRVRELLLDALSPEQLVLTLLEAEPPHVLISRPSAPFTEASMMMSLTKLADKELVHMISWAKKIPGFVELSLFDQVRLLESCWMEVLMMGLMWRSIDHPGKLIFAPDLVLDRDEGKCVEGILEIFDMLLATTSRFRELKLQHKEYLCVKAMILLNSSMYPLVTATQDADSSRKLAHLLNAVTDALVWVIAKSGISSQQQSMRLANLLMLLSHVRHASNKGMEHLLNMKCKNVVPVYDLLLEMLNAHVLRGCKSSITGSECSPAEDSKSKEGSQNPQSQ
Chain of Bcl-2-like protein 10 (Q9HD36 whole entry): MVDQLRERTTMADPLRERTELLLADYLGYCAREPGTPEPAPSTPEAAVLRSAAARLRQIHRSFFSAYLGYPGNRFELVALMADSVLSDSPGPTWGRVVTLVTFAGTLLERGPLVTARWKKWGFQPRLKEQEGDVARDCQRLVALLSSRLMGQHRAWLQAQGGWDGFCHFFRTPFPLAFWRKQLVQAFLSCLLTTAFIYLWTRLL
Chain of Mothers against decapentaplegic homolog 3 (P84022 whole entry): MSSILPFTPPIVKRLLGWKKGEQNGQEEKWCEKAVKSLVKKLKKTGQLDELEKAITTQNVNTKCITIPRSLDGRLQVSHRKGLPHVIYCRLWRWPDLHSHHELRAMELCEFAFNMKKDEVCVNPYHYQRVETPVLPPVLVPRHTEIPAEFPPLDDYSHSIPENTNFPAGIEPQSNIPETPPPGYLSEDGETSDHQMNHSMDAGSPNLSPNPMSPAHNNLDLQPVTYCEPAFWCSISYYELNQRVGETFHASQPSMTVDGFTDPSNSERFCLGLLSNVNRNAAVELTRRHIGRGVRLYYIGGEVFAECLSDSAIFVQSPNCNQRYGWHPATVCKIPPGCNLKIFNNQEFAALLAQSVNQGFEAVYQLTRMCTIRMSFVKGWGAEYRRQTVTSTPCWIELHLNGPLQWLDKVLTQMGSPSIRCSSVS
Chain of Luciferin 4-monooxygenase (P08659 whole entry): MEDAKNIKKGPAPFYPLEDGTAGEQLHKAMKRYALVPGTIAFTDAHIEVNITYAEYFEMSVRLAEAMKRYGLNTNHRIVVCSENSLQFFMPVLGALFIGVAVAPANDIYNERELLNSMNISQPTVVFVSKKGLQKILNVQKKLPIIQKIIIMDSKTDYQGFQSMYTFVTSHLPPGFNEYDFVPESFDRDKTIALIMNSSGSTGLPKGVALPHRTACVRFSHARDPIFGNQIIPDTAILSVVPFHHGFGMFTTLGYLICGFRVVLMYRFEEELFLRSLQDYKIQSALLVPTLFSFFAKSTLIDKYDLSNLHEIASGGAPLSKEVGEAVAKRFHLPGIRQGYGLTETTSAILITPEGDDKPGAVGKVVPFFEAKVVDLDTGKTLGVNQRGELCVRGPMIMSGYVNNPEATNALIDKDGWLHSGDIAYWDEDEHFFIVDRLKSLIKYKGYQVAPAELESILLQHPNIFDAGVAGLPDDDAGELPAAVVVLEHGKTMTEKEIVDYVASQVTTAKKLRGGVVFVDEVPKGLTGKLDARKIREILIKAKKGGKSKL

In the case of `CC1(O)C(=O)C=C2C=C3CCCN3C=C2C1=O` (stereo not given), the AC50 in test [1] is 7.94 µM (inconclusive).

Usually IC50 stands for the concentration that inhibits the measured activity by half. As to `COc1cc(/C=N/Nc2ccc(Cl)c(C(=O)O)c2)ccc1OC(=O)c1ccc(F)cc1`, the figures for the IC50 in [2] and in test [3] were 0.874 µM (active) and 4.76 µM (active), respectively.

As a reminder, the EC50 is the concentration at which the effect is half-maximal. On to `O=S(=O)(O)c1cccc2cccc(Nc3ccccc3)c12`, for which the EC50 in test [4] is 2.95 µM (active).

Regarding `CCCCOc1ccc(C(=O)C(CN2CCOCC2)c2ccccc2)cc1` (stereo not given), the EC50 in [5] was 30 µM (active); in [6], 3.7 µM (active); in [7] it was 26.7 µM (inconclusive). The values for the AC50 in test [8], in [9] and in test [10] were 12.6 µM (active), 4.4 µM (active) and 5.12 µM (active), respectively.

For `O=C(Nc1cccc(C(F)(F)F)c1)c1csc(-c2ccncc2)n1`, the IC50 in [11] was 21.2 µM (not active); in test [12], 5.34 µM (active).

On to `NC(=O)COc1ccc(C2c3c(oc4ccccc4c3=O)C(=O)N2CC2CCCO2)cc1` (stereo not given), for which the 50% inhibitory concentration (IC50) in [13] is 16 µM (active); in test [14], 55.1 µM (active); in test [15], > 50 µM (not active); in [16] it was > 50 µM (not active).

Consider `Oc1cc2c(cc1C(c1ccc3c(c1)OCO3)N1CCN(C(c3ccc4c(c3)OCO4)c3cc4c(cc3O)OCO4)CC1)OCO2` (stereo not given), for which, in test [17], the IC50 is 14.1 µM (not active).

Take `O=C(/C=C/c1ccccc1)Nc1ccc(Cl)cn1`: the EC50 in test [18] and in [19] was > 49.7 µM (not active) in each case.

As to `CCC(C)C(NC(=O)c1ccccc1NC(=O)c1ccco1)C(=O)NC1CCCCC1` (stereo not given), in [20], the EC50 was > 100 µM (not active).

(Values after ChEMBL document CHEMBL1201862, “PubChem BioAssay data set” (2004).)
